This is an account of results in patent US20240190841A1, “MODULATORS OF BCL6 PROTEOLYSIS AND ASSOCIATED METHODS OF USE” (Arvinas Operations, Inc., priority 2022, published 2024).

For the assay, the target named is T1, BCL6 (Homo sapiens, UniProt P41182).
T1 construct: endogenous in cells; host or cells: T47D breast cancer epithelial cells
As to the kind of experiment: Immunofluorescence high content imaging of BCL6 degradation in T47D cells. In kind it is cell-based. The settings on record: T47D breast cancer epithelial cells, 3 days incubation. How it is done: Immunofluorescence Protocol for High Content Imaging of BCL6
T47D cells were seeded in 100 μl volume of RPMI11640-10% FBS in a 96-well black/clear bottom plates for adherent lines (Corning #3904).
Day 1. T47D breast cancer epithelial cells were seeded at a density so that confluence is ˜70-90% at endpoint. Cells were seeded at 7K/0.1 mL/well the morning prior to the addition of exemplary bifunctional degradation compounds.
Day 2. Prepare an 11 point 3-fold serial dilution of exemplary bifunctional compound in DMSO and aliquot an appropriate volume to cell growth media to generate a 2× final concentration of exemplary bifunctional compound. Add an equal volume (0.1 ml) of 2× exemplary bifunctional compound/media mix to previously plated cells, for a final top concentration in aqueous cell growth media of 0.1 or 1 μM. Incubate for 3 days at 37° C., 5% CO2.
Day 5 Immunofluorescence. Discard cell media. Wash wells with 200 μl of room temperature phosphate-buffered saline (PBS). Prepared 4% paraformaldehyde (PFA) from 16% PFA (Electron Microscopy Sciences #15710) using 1×PBS. Fifty μL of 4% PF was added to each well and incubate for 15 minutes at room temperature to fix the cells. The PFA was aspirated and the cells washed twice with PBS (200 μL)).
Prepared 0.1% Triton X-100 in PBS using 10% triton X-100 stock. The cells were permeabilized by adding 100 μL of the 0.1% Triton X-100 in PBS to each well to permeabilize cells and incubating at room temperature for 15 minutes. Cells were washed twice with PBS.
Prepared 3% BSA/PBS (from Thermofisher #37515 Blocker BSA in TBS, 10%), and 100 μL was added to each well. The cells were incubated for at least 1 hour at room temperature.
Prepared 1% BSA/PBS using Blocker BSA/PBS, and the 3% BSA/PBS removed from the wells.
For no primary antibody controls, 50 μL 1% BSA/PBS was added.
Primary antibody (BCL6 Rb Ab, CST-14895, Cell Signaling) was diluted 1:300 in 1% BSA/PBS using Blocker BSA/PBS.
Fifty μl of primary antibody added to all remaining wells (i.e., all wells other than the primary antibody controls) and the cells were incubated overnight at 4° C. with slow orbital movement.
Day 6. Contents of the wells was removed and the cells washed four times with 200 μL PBS. 1% BSA/PBS was prepared using Blocker BSA in PBS.
Diluted secondary antibody goat anti-Rb IgG Alexa-488 1:1000, and cell mask-Alexa-647 1:3000 in 1% BSA/PBS in the same mix. Add 50 μL to each well and incubate at room temperature for 1 hour in the dark.
Cells were washed three times with 200 μL PBS, and then incubated for 10 minutes with 100 μL Hoechst dye at 1 μg/mL (20 mM stock) to stain cell nuclei. Wells were then washed with 200 μl PBS, and 100 μL of PBS was added to each well and the plate covered plate with a plastic opaque cover. Plates were stored at […] and covered in aluminum foil until imaged.
Plates were equilibrated to room temperature prior to reading. The bottom of the plate was wiped with 70% isopropanol immediately prior to imaging.
Imaging: • 10×, 4 fields/well, include Top hat smoothing in the analysis protocol.
Supplies/Reagents: • 16% paraformaldehyde: Electron Microscopy Sciences #15710 • Hoechst: Thermofisher #62249 • Blocker BSA in PBS, 10%: Thermofisher #37515 • Blocker BSA in TBS, 10%: Thermofisher #37520 • Goat anti-rabbit or mouse AlexaFluor-488: Thermofisher #A11008 • Cell mask deep red AlexaFluor-647: Thermofisher #C10046 • Wash buffer, PBS: 20×PBS, Thermofisher
As for `CNC(=O)COc1cc2cc(Nc3nc(N4CCC(O[C@H]5C[C@H](N6CCN(c7ccc(NC8CCC(=O)NC8=O)cc7)CC6)C5)CC4)ncc3Cl)ccc2n(C(C)C)c1=O` (stereo partly drawn) [Compound 5, 2-({6-[(5-chloro-2-{4-[(1r,3r)-3-(4-{4-[(2,6-dioxopiperidin-3-yl)amino]phenyl}piperazin-1-yl)cyclobutoxy]piperidin-1-yl}pyrimidin-4-yl)amino]-2-oxo-1-(propan-2-yl)-1,2-dihydroquinolin-3-yl}oxy)-N-methylacetamide], the 50% degradation concentration (DC50) (usually the midpoint of the concentration-degradation curve) was 50 to 100 nM.
Consider `CNC(=O)COc1cc2cc(Nc3nc(N4CCC(O[C@H]5C[C@H](N6CCN(c7ccc8c(c7Cl)[C@H](C)N([C@H]7CCC(=O)NC7=O)C8=O)[C@H](C)C6)C5)CC4)ncc3Cl)ccc2n(C(C)C)c1=O` (single isomer, unassigned) [Compound 34], for which the DC50 was 10 to 50 nM and the Dmax (commonly the largest share of the target that was removed) was under 50%.
For `CNC(=O)COc1cc2cc(Nc3nc(N4CCC(O[C@H]5C[C@H](N6CCN(c7ccc8c(ccn8C8CCC(=O)NC8=O)c7)CC6)C5)CC4)ncc3Cl)ccc2n(C(C)C)c1=O` (stereo partly drawn) [Compound 17, 2-({6-[(5-chloro-2-{4-[(1r,3r)-3-{4-[1-(2,6-dioxopiperidin-3-yl)-1H-indol-5-yl]piperazin-1-yl}cyclobutoxy]piperidin-1-yl}pyrimidin-4-yl)amino]-2-oxo-1-(propan-2-yl)-1,2-dihydroquinolin-3-yl}oxy)-N-methylacetamide] the same measures were under 10 nM and at least 70%.
In the same order, the values of `CCn1c(=O)n(C2CCC(=O)NC2=O)c2ccc(N3CCN([C@H]4C[C@H](OC5CCN(c6ncc(Cl)c(Nc7ccc8c(c7)cc(OCC(=O)NC)c(=O)n8C(C)C)n6)CC5)C4)CC3)cc21` (stereo partly drawn) [Compound 7] are under 10 nM and at least 70%.
In the same order, the values of `CNC(=O)COc1cc2cc(Nc3nc(N4CCC(O[C@H]5C[C@H](N6CCN(c7cnc8c(c7)n(C)c(=O)n8C7CCC(=O)NC7=O)CC6)C5)CC4)ncc3Cl)ccc2n(C(C)C)c1=O` (stereo partly drawn) [Compound 16, 2-({6-[(5-chloro-2-{4-[(1r,3r)-3-{4-[3-(2,6-dioxopiperidin-3-yl)-1-methyl-2-oxo-1H,2H,3H-imidazo[4,5-b]pyridin-6-yl]piperazin-1-yl}cyclobutoxy]piperidin-1-yl}pyrimidin-4-yl)amino]-2-oxo-1-(propan-2-yl)-1,2-dihydroquinolin-3-yl}oxy)-N-methylacetamide] are under 10 nM and 50 to 70%.
`CNC(=O)COc1cc2cc(Nc3nc(N4CCC(O[C@H]5C[C@H](N6CCN(c7ccc8c(c7Cl)[C@H](C)N([C@@H]7CCC(=O)NC7=O)C8=O)[C@H](C)C6)C5)CC4)ncc3Cl)ccc2n(C(C)C)c1=O` (single isomer, unassigned) [Compound 35] returned a DC50 of under 10 nM and a Dmax of 50 to 70%.
For `CNC(=O)COc1cc2cc(Nc3nc(N4CCC(O[C@H]5C[C@H](N6CCN(c7cc(C)c8c(c7)n(C)c(=O)n8C7CCC(=O)NC7=O)CC6)C5)CC4)ncc3Cl)ccc2n(C(C)C)c1=O` (stereo partly drawn) [Compound 26, 2-({6-[(5-chloro-2-{4-[(1r,3r)-3-{4-[1-(2,6-dioxopiperidin-3-yl)-3,7-dimethyl-2-oxo-2,3-dihydro-1H-1,3-benzodiazol-5-yl]piperazin-1-yl}cyclobutoxy]piperidin-1-yl}pyrimidin-4-yl)amino]-2-oxo-1-(propan-2-yl)-1,2-dihydroquinolin-3-yl}oxy)-N-methylacetamide], the 50% degradation concentration (DC50) lay in the range of 10 to 50 nM and the greatest degradation seen (Dmax) lay in the range of 50 to 70%.
The molecule `CNC(=O)COc1cc2cc(Nc3nc(N4CCC(O[C@H]5C[C@H](N6CC[C@@H](c7cc(C)c8c(c7F)CN([C@H]7CCC(=O)NC7=O)C8=O)[C@@H](F)C6)C5)CC4)ncc3Cl)ccc2n(C(C)C)c1=O` [Compound 38, 2-({6-[(5-chloro-2-{4-[(1r,3r)-3-[(3R,4S)-4-{2-[(3S)-2,6-dioxopiperidin-3-yl]-4-fluoro-7-methyl-1-oxo-3H-isoindol-5-yl}-3-fluoropiperidin-1-yl]cyclobutoxy]piperidin-1-yl}pyrimidin-4-yl)amino]-1-isopropyl-2-oxoquinolin-3-yl}oxy)-N-methylacetamide] gave a DC50 of under 10 nM and a Dmax of 50 to 70%.
Turning to `CNC(=O)COc1cc2cc(Nc3nc(N4CCC(O[C@H]5C[C@H](N6CC[C@H](c7cc(C)c8c(c7F)CN([C@H]7CCC(=O)NC7=O)C8=O)[C@H](F)C6)C5)CC4)ncc3Cl)ccc2n(C(C)C)c1=O` [Compound 39, 2-({6-[(5-chloro-2-{4-[(1r,3r)-3-[(3S,4R)-4-{2-[(3S)-2,6-dioxopiperidin-3-yl]-4-fluoro-7-methyl-1-oxo-3H-isoindol-5-yl}-3-fluoropiperidin-1-yl]cyclobutoxy]piperidin-1-yl}pyrimidin-4-yl)amino]-1-isopropyl-2-oxoquinolin-3-yl}oxy)-N-methylacetamide], the DC50 was under 10 nM and the maximal degradation (Dmax) was at least 70%.
For `CNC(=O)COc1cc2cc(Nc3nc(N4CCC(O[C@H]5C[C@H](N6CCN(c7cc8c(cc7C)n(C7CCC(=O)NC7=O)c(=O)n8C)CC6)C5)CC4)ncc3Cl)ccc2n(C(C)C)c1=O` (stereo partly drawn) [Compound 20, 2-({6-[(5-chloro-2-{4-[(1r,3r)-3-{4-[1-(2,6-dioxopiperidin-3-yl)-3,6-dimethyl-2-oxo-2,3-dihydro-1H-1,3-benzodiazol-5-yl]piperazin-1-yl}cyclobutoxy]piperidin-1-yl}pyrimidin-4-yl)amino]-2-oxo-1-(propan-2-yl)-1,2-dihydroquinolin-3-yl}oxy)-N-methylacetamide] the same measures were under 10 nM and at least 70%.
For the molecule `CNC(=O)COc1cc2cc(Nc3nc(N4CCC(O[C@H]5C[C@H](N6CCN(c7ccc8c(c7F)[C@@H](C)N([C@H]7CCC(=O)NC7=O)C8=O)[C@H](C)C6)C5)CC4)ncc3Cl)ccc2n(C(C)C)c1=O` (single isomer, unassigned) [Compound 30], the DC50 lay in the range of 10 to 50 nM and the Dmax was under 50%.
In turn, `CNC(=O)COc1cc2cc(Nc3nc(N4CCC(O[C@H]5C[C@H](N6CCN(c7ccc8c(c7Cl)[C@@H](C)N([C@H]7CCC(=O)NC7=O)C8=O)[C@H](C)C6)C5)CC4)ncc3Cl)ccc2n(C(C)C)c1=O` (single isomer, unassigned) [Compound 32] had a DC50 of under 10 nM and a Dmax of at least 70%.
In the same order, the values of `CNC(=O)COc1cc2cc(Nc3nc(N4CCC(O[C@H]5C[C@H](N6CCC(c7cccc8c7n(C)c(=O)n8C7CCC(=O)NC7=O)CC6)C5)CC4)ncc3Cl)ccc2n(C(C)C)c1=O` (stereo partly drawn) [Compound 1, 2-({6-[(5-chloro-2-{4-[(1r,3r)-3-{4-[1-(2,6-dioxopiperidin-3-yl)-3-methyl-2-oxo-2,3-dihydro-1H-1,3-benzodiazol-4-yl]piperidin-1-yl}cyclobutoxy]piperidin-1-yl}pyrimidin-4-yl)amino]-2-oxo-1-(propan-2-yl)-1,2-dihydroquinolin-3-yl}oxy)-N-methylacetamide] are under 10 nM and at least 70%.
`CNC(=O)COc1cc2cc(Nc3nc(N4CCC(O[C@H]5C[C@H](N6CCN(c7cc(F)c8c(c7)n(C)c(=O)n8C7CCC(=O)NC7=O)CC6)C5)CC4)ncc3Cl)ccc2n(C(C)C)c1=O` (stereo partly drawn) [Compound 10, 2-({6-[(5-chloro-2-{4-[(1r,3r)-3-{4-[1-(2,6-dioxopiperidin-3-yl)-7-fluoro-3-methyl-2-oxo-2,3-dihydro-1H-1,3-benzodiazol-5-yl]piperazin-1-yl}cyclobutoxy]piperidin-1-yl}pyrimidin-4-yl)amino]-2-oxo-1-(propan-2-yl)-1,2-dihydroquinolin-3-yl}oxy)-N-methylacetamide]: the DC50 is under 10 nM and the greatest degradation seen (Dmax) was at least 70%.
